In patent US12410157B2, “Compound useful as toll-like receptor 7 activation inhibitor” (TOYAMA PREFECTURAL UNIVERSITY, priority 2020, dated 2025):
Several values for one entry are separate records, joined by “and”; a condition that tells them apart may be missing. Equal values may be shown once. Read-outs that look alike come from different tables or passages of the source.

What was measured:
mouse TLR7 = biological target: T1, mouse TLR7 (Mus musculus, UniProt P58681); assay: Inhibition of TLR7 activation in mouse TLR7-expressing NF-κB-GFP reporter Ba/F3 cells; assay type: cell-based
T1 construct: expressed in transfected cells; host or cells: Ba/F3 cells (provided by Prof. Kensuke Miyake, University of Tokyo)
T1 sequence (P58681 27-1050): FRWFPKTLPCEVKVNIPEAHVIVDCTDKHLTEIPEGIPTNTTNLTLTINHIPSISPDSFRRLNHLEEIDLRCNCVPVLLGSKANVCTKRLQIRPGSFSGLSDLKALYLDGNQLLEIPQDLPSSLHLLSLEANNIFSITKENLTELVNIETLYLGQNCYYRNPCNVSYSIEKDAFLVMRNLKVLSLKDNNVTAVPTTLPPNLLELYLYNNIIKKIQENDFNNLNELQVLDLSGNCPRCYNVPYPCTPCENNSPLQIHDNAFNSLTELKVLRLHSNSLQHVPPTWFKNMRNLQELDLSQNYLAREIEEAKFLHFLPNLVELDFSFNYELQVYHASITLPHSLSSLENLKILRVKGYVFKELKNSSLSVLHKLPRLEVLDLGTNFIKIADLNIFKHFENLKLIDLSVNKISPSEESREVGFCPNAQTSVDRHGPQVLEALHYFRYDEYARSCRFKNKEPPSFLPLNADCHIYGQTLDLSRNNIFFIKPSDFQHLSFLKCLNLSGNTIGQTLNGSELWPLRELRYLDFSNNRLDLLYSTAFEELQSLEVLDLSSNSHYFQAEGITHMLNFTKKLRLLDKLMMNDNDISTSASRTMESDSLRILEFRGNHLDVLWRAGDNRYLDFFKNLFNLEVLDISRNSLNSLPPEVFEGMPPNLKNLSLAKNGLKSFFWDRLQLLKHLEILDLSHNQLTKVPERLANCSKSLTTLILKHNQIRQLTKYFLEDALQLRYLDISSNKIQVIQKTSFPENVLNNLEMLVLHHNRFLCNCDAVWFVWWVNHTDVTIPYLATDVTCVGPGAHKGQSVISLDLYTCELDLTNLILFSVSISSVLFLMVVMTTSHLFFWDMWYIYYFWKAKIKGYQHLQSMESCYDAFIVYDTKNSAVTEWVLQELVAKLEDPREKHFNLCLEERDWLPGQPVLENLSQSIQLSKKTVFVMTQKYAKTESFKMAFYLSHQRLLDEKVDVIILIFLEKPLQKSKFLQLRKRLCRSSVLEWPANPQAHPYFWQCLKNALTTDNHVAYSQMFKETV
Source text: Mouse TLR7-expressing reporter cells (Ba/F3 cells) were used to evaluate inhibition of TLR7 activation in each derivative and CB-7. These cells were provided by Professor Kensuke Miyake (Department of Infection Genetics, Institute of Medical Science, University of Tokyo). These cells have been transfected with a reporter gene that connects GFP gene downstream of the promoter region of NF-κB. Therefore, the expression of GFP is enhanced by the addition of a ligand for TLR7 expressed by the cells. The fluorescence intensity of GFP was attenuated by the addition of each derivative, and the inhibition of TLR7 activation by each derivative was evaluated as an indicator.
Loxoribine (Alexis Biochemicals) was used as the ligand for mouse TLR7. Gardiquimod (Invivogen) was used as the ligand for human TLR7.
Ba/F3 cells cultured in RPMI 1640 medium containing 10% (v/v) fetal calf serum (FCS), 50 U/mL penicillin, 50 μg/mL streptomycin, 2 mM L-glutamine, […] 2-mercaptoethanol, 1 ng/mL interleukin-3 were aliquoted into 96-well plates so that the number of cells per well was 1.0×10^5 cells/100 μL. 50 μL of each derivative or CB-7, prepared to final concentrations of 1, 5, 10, 25, 50, and 100 µM, was added to each well. 96-well plates were incubated at 37° C. for 30 minutes in the presence of 5% CO2. Next, 250 μg/mL Roxoribin was added to each well and incubated for 18 hours. At the end of incubation, cells were washed with PBS (FACS buffer) containing 2.5% (v/v) FCS and suspended in 200 μL of FACS buffer containing 25 μg/mL […] for each cell. GFP fluorescence intensities of the cells were analyzed by flow cytometry. Flow cytometry measurement was performed on a FACSCanto™ II (Becton Dickinson) and data were analyzed with FlowJo software (Tree Star). The MFI (%) upon stimulation with roxoribin in the presence of […] derivatives or CB-7 was calculated using the MFI upon stimulation with roxoribin alone as 100%, and then IC50 (chemical compound concentration that inhibits activity by 50%) was calculated by logistic regression analysis.
The evaluation of the TLR7 activation inhibition by B2-24-4-5A·HCOOH was performed by the method described in Example 2. CB-7 and B2-24-4·HCl were used as controls.

[1] = system: Cytochrome P450 (CYP), mouse liver microsomes; assay: Metabolic stability (CYP) using mouse liver microsomes, HPLC; assay type: in vitro ADME; conditions: for Area (%) of peak: LC-UV (220 nm)
Procedure: For CB-7, B2-24, and B2-5A, 10 mg/mL DMSO solution was used. Each chemical compound was diluted with acetonitrile to 0.1 mg/mL, which was used as the analytical standard. Mouse liver microsomal fractions were rapidly thawed in a warm bath at 37° C. and kept on ice. Reaction buffer containing CYP cofactor was prepared on ice and mixed with the microsomal fractions. The reaction solution was preincubated at 37° C. for 5 minutes, and then the test substance solution was added and mixed well by pipetting. The volume of the reaction solution was 200 μL and the final concentration of the test substance was 0.1 mg/mL. The reaction solution was incubated at 37° C. for 30 minutes or 2 hours, and the reaction was stopped by adding 3 times the volume of acetonitrile and vortexing. After the reaction was stopped, the samples were centrifuged, and each supernatant was separated and dried in an evaporator. 50 μL of 50% acetonitrile solution was added to each solidified sample, and each sample was re-dissolved by vortexing for 5 minutes. Each redissolved solution was centrifuged, and each supernatant was subjected to HPLC analysis using a HITACHI Lachrom ELITE (HITACHI) as a HPLC system and COSMOSIL 5C18-MS-II, 4.6 mmI.D.×150 mm (nacalai tesque Co.) as a column.
Metabolic stability analysis of CB-7 and B2-24-4-5A·HCOOH was performed by the method of Example 5.

[2] = Plasma concentration in normal mice after oral administration; assay type: in vivo, mice (C57BL/6N); conditions: C57BL/6N mice, 1 mg orally, LC/MS/MS
Procedure: Plasma concentrations of CB-7 or B2-24-4-5A·HCOOH were measured in normal mice (C57BL/6N, 11 weeks old, female) after oral administration. 1 mg of CB-7 or B2-24-4-5A·HCOOH was administered orally to mice C57BL/6N. After 0.5, 1, 2, 4, or 8 hours, blood was collected from mice C57BL/6N to prepare plasma. The concentration of CB-7 or B2-24-4-5A·HCOOH in the plasma was measured by LC/MS/MS.

IC50 (mouse TLR7; Example 2, Ba/F3 reporter cells, loxoribine stimulation 18 hours, GFP MFI, read-out: IC50 of CB-7 derivatives with modified Areas a and b): 3.12 µM
IC50 (mouse TLR7; Example 5, Table 5, method of Example 2, read-out: IC50): 7.66 µM
Number of peaks detected by HPLC ([1]; Example 3, 0.1 mg/mL, 37° C., 30 minutes or 2 hours): 7
Number of peaks detected by HPLC ([1]; Example 9): 9
Area (%) of peak ([1]; Example 9, 0 h): 100%
Area (%) of peak ([1]; Example 9, incubation 0.5 h): 65.3%
Area (%) of peak ([1]; Example 9, incubation 2.0 h): 41.6% and 41.2%
Plasma concentration after 8 hours [2]: could not be detected
Compound: C=C[C@]1(CO)CC[C@@H](C(=C)C)[C@H](c2ccc(OC)cc2)C1 [CB-7, reference compound]
